Measurements published in ChEMBL document CHEMBL5042521, “A Structure-based Design Approach for Generating High Affinity BRD4 D1-Selective Chemical Probes” (J Med Chem, 2022).

Assays:
[1] = target: Bromodomain-containing protein 2 (Homo sapiens, UniProt P25440)
Description: Binding affinity to BRD2 D1 (unknown origin) assessed as dissociation constant by isothermal titration calorimetry

[2] = target: Bromodomain-containing protein 4 (Homo sapiens, UniProt O60885)
Description: Binding affinity to BRD4 D2 (unknown origin) assessed as dissociation constant by isothermal titration calorimetry

Chain of Bromodomain-containing protein 2 (P25440 whole entry): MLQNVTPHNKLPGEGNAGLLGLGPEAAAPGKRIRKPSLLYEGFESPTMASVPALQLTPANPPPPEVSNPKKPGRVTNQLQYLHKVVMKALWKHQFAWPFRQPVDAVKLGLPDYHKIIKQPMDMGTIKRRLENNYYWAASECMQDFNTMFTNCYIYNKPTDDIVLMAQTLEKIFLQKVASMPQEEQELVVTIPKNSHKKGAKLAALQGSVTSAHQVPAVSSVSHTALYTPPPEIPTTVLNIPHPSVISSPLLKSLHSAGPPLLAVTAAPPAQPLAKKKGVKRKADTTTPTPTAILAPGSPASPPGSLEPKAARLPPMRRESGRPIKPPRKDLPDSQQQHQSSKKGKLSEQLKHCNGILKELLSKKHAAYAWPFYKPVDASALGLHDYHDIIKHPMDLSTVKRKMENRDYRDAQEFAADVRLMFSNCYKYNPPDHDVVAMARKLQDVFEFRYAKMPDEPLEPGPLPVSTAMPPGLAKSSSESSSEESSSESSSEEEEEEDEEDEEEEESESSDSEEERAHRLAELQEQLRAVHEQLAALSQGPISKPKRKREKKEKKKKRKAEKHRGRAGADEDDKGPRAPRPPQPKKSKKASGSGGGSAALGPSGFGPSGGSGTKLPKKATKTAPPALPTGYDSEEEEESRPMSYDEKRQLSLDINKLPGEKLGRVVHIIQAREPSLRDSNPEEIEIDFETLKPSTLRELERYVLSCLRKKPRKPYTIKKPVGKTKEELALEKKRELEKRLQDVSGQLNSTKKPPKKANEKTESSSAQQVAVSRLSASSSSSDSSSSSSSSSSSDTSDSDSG

Q: For Cc1ccc(C(C)C)cc1Oc1nccc(-c2c(-c3ccc(C(F)(F)F)cc3)ncn2[C@H]2CCN(CCN(C)C)C2)n1, which Kd [1] is on record?
A: The Kd was “Not Active”.

Q: What about the Kd [2] of the same compound?
A: Its Kd is “Not Active”.

Q: Which results are given for Cc1ccc(C(C)C)cc1Oc1nccc(-c2c(-c3ccc(C(F)(F)F)cc3)ncn2C2CCN(CCN(C)C)CC2)n1?
A: Kd [1]: Not Active; Kd [2]: Not Active
